Results on one molecule are retold here after patent US20030158250A1, “Agents correcting gene expression regulatory error” (priority 2000, published 2003).

Experiment [1] relates to interleukin-6 (IL-6). Briefly: TPA-induced IL-6 production in peritoneal macrophage (ELISA). Format: cell-based. The conditions noted are these: mouse peritoneal macrophage, final concentrations 20 μM and 10 μM, 14 hours, IL-6 in culture supernatant by ELISA. On the procedure:
Four milliliters of a 10% fetal bovine serum-containing RPMI 1640 medium (manufactured by Bio Whittaker, 12-702F) was intraperitoneally injected to ddy mouse (Nippon SLC, female, 7-weeks old), and the mouse was well massaged, and the medium was taken out to obtain peritoneal cells. The peritoneal cells were suspended in the 10% fetal bovine serum-containing RPMI 1640 medium so as to have a concentration of 10^6 cells/ml, and dispensed into 48-well microtiter plate in a volume of 500 μl each. The peritoneal cells were cultured at 37° C. for 2 hours in the presence of 5% CO2 gas. Thereafter, the culture supernatant was removed to give adherent cells to be used as peritoneal macrophage. To each well was freshly dispensed a Dulbecco's modified Eagle's medium (manufactured by Bio Whittaker; 12-917F) without phenol red containing 10% fetal bovine serum and 2 mM L-glutamine in a volume of 500 μl. […] The content of interleukin-6 (IL-6) in the culture supernatant was assayed by enzyme immuno-sandwich assay (ELISA: Matched antibody Pair SamplePak mouse IL-6, manufactured by Endogen). Here, the group with no addition of DGE and TPA aqueous solution (control) was set as a negative control, and the group with addition of TPA aqueous solution alone (control+TPA) was set as a positive control. In addition, all of the assays were carried out twice.

In experiment [2] the test system is TNFα. Briefly: LPS-stimulated TNFα production in monocytes (ELISA). Format: cell-based. Particulars: human monocytes, final concentration 10 μM, 20 μM or 40 μM, 5 hours, then LPS 4 hours. On the procedure:
PBMCs were isolated in the same manner as in item (1) of Example 4. PBMCs were suspended in RPMI 1640 medium containing 5% human serum of blood type-AB, 0.1 mM nonessential amino acid, 1 mM sodium pyruvate, 2 mM L-glutamine (hereinabove manufactured by Bio Whittaker), 10 mM HEPES (manufactured by nakalai tesque), and 1% streptomycin-penicillin (manufactured by Gibco BRL) (hereinafter simply referred to as “5HRPMI medium”) so as to have a concentration of 2×10^6 cells/ml. Thereafter, the suspension was spread on a 24-well cell culture plate (manufactured by Falcon) in a volume of 1 ml/well, and the cells were incubated in a wet-type incubator at 37° C. and 5% CO2 for 1.5 hours. After 1.5 hours, the non-adherent cells were removed by suction, and each well was washed with RPMI 1640 medium, and 1 ml of the 5HRPMI medium was added to the wells, to give monocytes.
To the monocytes obtained above was added in each well 10 μl of a 1 mM, 2 mM or 4 mM aqueous DGE solution (each having a final concentration of 10 μM, 20 μM or 40 μM), or a 5 mM, 10 mM or 20 mM aqueous agarobiose solution (each having a final concentration of 50 μM, 100 μM or 200 μM), or 10 μl of water as a control (i.e. each of concentrations of DGE and agarobiose being 0 μM), and the cells were incubated in a wet-type incubator at 37° C. and 5% CO2 for 5 hours. […]
Background: In an ELISA, binding on a coated surface is turned into a signal by an enzyme label.

On to `O=C1C=CC(CO)OC1O` [DGE, L-glycero-1,5-epoxy-1αβ,6-dihydroxy-cis-hex-3-en-2-one], for which the “inhibition of TPA-induced IL-6 production” value in experiment [1] is reported as “inhibition of TPA-induced IL-6 production was found DGE-concentration dependently”. The “inhibition of LPS-stimulated TNFα production” value in experiment [2] is “inhibition”.
